Values joined by “and” are separate entries in the source; they are usually repeats but may differ in a detail not shown here. Equal values may be shown once.
Tests used:
[1] = target: T1, AbCGT (Aloe vera, UniProt A0A7G9P699); experiment: Glycosyltransferase activity assay, purified AbCGT (wild type) with aglycon acceptors and UDP-Glc; assay type: biochemical, Aloe barbadensis; conditions: aglycon acceptor with UDP-Glc, pH 7.4, 30 °C, up to 12 h; Reaction-1 to -3
[2] = target: T1, AbCGT; experiment: Kinetic parameters of AbCGT (wild type); assay type: biochemical, Aloe barbadensis; conditions: acceptor varied, saturating UDP-Glc, pH 7.4, 30 °C
Experimental: The reactions terminated by the addition of 200 μL of ice-cold methanol. Subsequently, samples were centrifuged at 15,000 × g for 30 min to collect the supernatant, and aliquots were analyzed by HPLC as described above. All experiments were performed in triplicate. The value of Km was calculated with the method of Lineweaver–Burk plot.

[3] = system: Influenza A/WSN/33 (H1N1); experiment: microbe, parasite or virus in culture; assay type: cell-based; conditions: final concentration 20 μM, — = no inhibition activity, read-out: Inhibitory Rates, anti-influenza A virus activity
[4] = target: T2, SGLT2 (Homo sapiens, UniProt P31639); experiment: 1-NBDG uptake in HEK293 cells stably expressing SGLT2; assay type: cell-based; conditions: triplicate; for inhibition at 10 µM: HEK293, compound at 10 μM, read-out: SGLT2 inhibitory rates; for SGLT2 inhibitory rates: compound at 10 μM, 10 µM
T2 construct: Human full-length SGLT2 cDNA (NM_003041.3) was synthesized; expressed in transfected cells; host or cells: HEK293, retroviral transduction with pMSCVpuro-SGLT2, puromycin selected
T2 sequence (P31639 1-672): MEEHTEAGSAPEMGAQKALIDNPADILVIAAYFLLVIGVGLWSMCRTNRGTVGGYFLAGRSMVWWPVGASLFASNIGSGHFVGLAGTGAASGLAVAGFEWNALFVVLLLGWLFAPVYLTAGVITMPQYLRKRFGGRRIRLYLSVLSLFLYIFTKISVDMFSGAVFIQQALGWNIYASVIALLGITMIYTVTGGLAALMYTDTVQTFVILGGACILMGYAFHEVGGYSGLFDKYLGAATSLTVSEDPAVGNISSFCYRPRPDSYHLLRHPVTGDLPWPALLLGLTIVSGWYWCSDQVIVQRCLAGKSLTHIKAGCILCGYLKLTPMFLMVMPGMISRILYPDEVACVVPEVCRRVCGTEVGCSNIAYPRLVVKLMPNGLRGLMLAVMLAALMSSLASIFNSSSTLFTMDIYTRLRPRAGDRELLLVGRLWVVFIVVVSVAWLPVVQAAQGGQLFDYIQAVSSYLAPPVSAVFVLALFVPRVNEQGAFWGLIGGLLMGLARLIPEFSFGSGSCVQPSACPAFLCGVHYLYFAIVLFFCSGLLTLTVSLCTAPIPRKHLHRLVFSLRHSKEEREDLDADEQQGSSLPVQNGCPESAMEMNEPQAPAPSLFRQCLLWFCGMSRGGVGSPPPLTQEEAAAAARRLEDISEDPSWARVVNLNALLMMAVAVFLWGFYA

[5] = target: T3, SGLT1 (Homo sapiens, UniProt P13866); experiment: 1-NBDG uptake in HEK293 cells stably expressing SGLT1; assay type: cell-based; conditions: HEK293, compound at 10 μM; triplicate; read-out: SGLT1 inhibitory rates
T3 construct: The full-length SGLT1 cDNA was obtained by PCR with forward primer; expressed in transfected cells
T3 sequence (P13866 1-664): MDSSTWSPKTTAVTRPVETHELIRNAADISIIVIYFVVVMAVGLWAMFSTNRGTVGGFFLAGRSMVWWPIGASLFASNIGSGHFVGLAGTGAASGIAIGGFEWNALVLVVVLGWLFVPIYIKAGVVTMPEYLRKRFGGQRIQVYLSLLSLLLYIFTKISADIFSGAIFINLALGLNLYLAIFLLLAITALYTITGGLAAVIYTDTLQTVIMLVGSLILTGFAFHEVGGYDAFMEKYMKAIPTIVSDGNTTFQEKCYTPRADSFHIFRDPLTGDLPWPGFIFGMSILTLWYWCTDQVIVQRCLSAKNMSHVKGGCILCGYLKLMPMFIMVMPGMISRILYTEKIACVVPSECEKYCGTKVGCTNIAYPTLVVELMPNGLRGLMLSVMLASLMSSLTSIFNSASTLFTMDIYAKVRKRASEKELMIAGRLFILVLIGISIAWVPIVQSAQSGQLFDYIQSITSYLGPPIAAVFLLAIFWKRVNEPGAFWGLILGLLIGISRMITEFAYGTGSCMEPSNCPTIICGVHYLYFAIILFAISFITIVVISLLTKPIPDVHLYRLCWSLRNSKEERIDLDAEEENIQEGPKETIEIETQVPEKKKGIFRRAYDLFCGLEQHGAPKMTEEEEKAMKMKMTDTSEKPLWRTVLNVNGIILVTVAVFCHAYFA

[6] = system: KKAy mice; experiment: Hypoglycemic effect in T2DM KKAy mice, blood glucose; assay type: in vivo; conditions: individual mice
Experimental: (§1) To evaluate the hypoglycemic effect of 46a in type 2 diabetes mellitus (T2DM), female KKAy mice weighing 42–48 g were obtained from the Animal Center of the Institute of Laboratory Animal Sciences, Chinese Academy of Medical Sciences and Peking Union Medical College. […] Blood samples were collected at 1, 2, 4, 6, 8, 24, and 48 h after treatment. […] The glucose levels in urine 4 h and 6 h after administration were also determined using a Biosen C-Line Glucose analyzer (EKF Diagnostics, Germany).

[7] = system: alloxan-induced DM mice; experiment: Hypoglycemic effect in alloxan-induced diabetic mellitus (DM) mice; assay type: in vivo; conditions: individual mice
Experimental: Type 1 diabetes mellitus (T1DM) mice were established by intravenous injection of alloxan tetrahydrate (68 mg kg^‒1 BW). […] Nonfasting blood glucose was kinetically monitored at 1, 2, 4, 6, 8, 24, and 48 h after treatment with 46a.

[8] = system: ICR mice; experiment: Oral glucose-tolerance test (OGTT) in normal ICR mice; assay type: in vivo; conditions: individual mice
Experimental: The hypoglycemic effect of 46a was firstly evaluated by oral glucose-tolerance test (OGTT) in mice with normal blood glucose levels. Male Institute of Cancer Research (ICR) mice weighing 24–26 g were obtained from Beijing Vital River Laboratory Animal Technology Co., Ltd (Beijing, China) and divided into three groups (n = 7–8). […] After 2 h of fasting, blood samples were collected from the tails for determination of baseline values of blood glucose (0 min). The mice were then orally administered glucose (2 g kg^‒1 BW), and blood samples were collected at 15, 30, 60, and 120 min. A glucose oxidase (GOD) assay was used for blood glucose-level measurement. The values of area under the glucose-time curve (AUC) were calculated.

[9] = system: KKAy mice; experiment: Urinary glucose excretion in T2DM KKAy mice; assay type: in vivo; conditions: 46a 100 mg kg^‒1 or dapagliflozin 5mg/kg, individual mice
Experimental: as §1

T1 sequence (A0A7G9P699 entry or part of it): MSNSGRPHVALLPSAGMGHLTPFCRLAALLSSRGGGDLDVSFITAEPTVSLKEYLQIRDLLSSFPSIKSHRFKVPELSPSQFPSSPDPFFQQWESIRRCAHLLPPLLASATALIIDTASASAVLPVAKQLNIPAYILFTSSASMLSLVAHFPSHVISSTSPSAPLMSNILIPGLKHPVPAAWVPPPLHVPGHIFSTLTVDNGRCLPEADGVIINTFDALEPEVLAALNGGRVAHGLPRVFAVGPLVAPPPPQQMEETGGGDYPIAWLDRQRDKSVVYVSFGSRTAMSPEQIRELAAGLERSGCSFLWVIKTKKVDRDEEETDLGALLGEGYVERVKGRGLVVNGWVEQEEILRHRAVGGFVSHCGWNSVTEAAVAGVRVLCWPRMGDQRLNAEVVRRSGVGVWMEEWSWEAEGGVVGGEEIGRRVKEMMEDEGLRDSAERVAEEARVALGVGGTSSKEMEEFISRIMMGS

CC(=O)c1c(O)cc(O)cc1O [Compound 11, phloracetophene]
conversion rates, O,N,S-glycosylation [1]: 0%
conversion rates, di-C-glycosylation [1]: 100%
conversion rates, mono-C-glycosylation [1]: 0%
Kcat [2]: 2.4 s⁻¹

OCC1OC(c2c(O)cc(O)c(Cc3ccc4nccnc4c3)c2O)C(O)C(O)C1O (stereo not drawn) [Compound 44a]
inhibition at 20 µM [3]: 82.8%
inhibition at 10 µM [4]: > 96%
SGLT2 inhibitory rates [4]: 96.6%
inhibition at 10 µM [5]: 31.8%

CCOc1ccc(Cc2cc([C@@H]3O[C@H](CO)[C@@H](O)[C@H](O)[C@H]3O)ccc2Cl)cc1 [Dapagliflozin, reference compound]
blood glucose ([6]; 0h, KKAy mice, single dose 46a 100 mg kg^‒1 or dapagliflozin 5 mg kg^‒1): 376.7 mg/dL and 390 mg/dL and 405.5 mg/dL and 293.3 mg/dL and 575.6 mg/dL and 463.6 mg/dL and 388.1 mg/dL
blood glucose ([6]; 1h, same doses): 205.5 mg/dL and 228.8 mg/dL and 391.4 mg/dL and 363.9 mg/dL and 193.8 mg/dL and 248.6 mg/dL and 235.8 mg/dL
blood glucose ([6]; 2h, same doses): 279.3 mg/dL and 221.6 mg/dL and 285.4 mg/dL and 256 mg/dL and 184.4 mg/dL and 245.5 mg/dL and 256.8 mg/dL
blood glucose ([6]; 4h, same doses): 138 mg/dL and 102 mg/dL and 48.9 mg/dL and 98.1 mg/dL and 137.3 mg/dL and 182.3 mg/dL and 181.7 mg/dL
blood glucose ([6]; 6h, same doses): 123.1 mg/dL and 172.3 mg/dL and 164.6 mg/dL and 79.8 mg/dL and 177.1 mg/dL and 134.4 mg/dL
blood glucose ([6]; 8h, same doses): 91.6 mg/dL and 196.3 mg/dL and 150.5 mg/dL and 208.1 mg/dL and 124.9 mg/dL and 86.9 mg/dL
blood glucose ([6]; 24h, same doses): 254.9 mg/dL and 217.5 mg/dL and 176.2 mg/dL and 237.1 mg/dL and 286.9 mg/dL and 219.8 mg/dL
blood glucose ([6]; 48h, same doses): 395.7 mg/dL and 347.1 mg/dL and 229.8 mg/dL and 332.5 mg/dL and 388.1 mg/dL and 274.9 mg/dL
OD505nm (nonfasting blood glucose) ([7]; 0h, alloxan-induced DM mice, single dose 46a 100 mg kg^‒1 or dapagliflozin 5 mg kg^‒1): 0.567 and 0.574 and 0.561 and 0.564 and 0.434 and 0.496 and 0.426 and 0.589
OD505nm (nonfasting blood glucose) ([7]; 1h, same doses): 0.393 and 0.333 and 0.301 and 0.52 and 0.314 and 0.35 and 0.222 and 0.29
OD505nm (nonfasting blood glucose) ([7]; 2h, same doses): 0.27 and 0.388 and 0.281 and 0.364 and 0.279 and 0.346 and 0.193 and 0.231
OD505nm (nonfasting blood glucose) ([7]; 4h, same doses): 0.352 and 0.41 and 0.322 and 0.471 and 0.197 and 0.266 and 0.208 and 0.227
OD505nm (nonfasting blood glucose) ([7]; 8h, same doses): 0.347 and 0.446 and 0.312 and 0.421 and 0.195 and 0.25 and 0.231 and 0.327
OD505nm (nonfasting blood glucose) ([7]; 24h, same doses): 0.536 and 0.578 and 0.561 and 0.735 and 0.409 and 0.563 and 0.408 and 0.501
OD505nm (nonfasting blood glucose) ([7]; 48h, same doses): 0.513 and 0.594 and 0.579 and 0.796 and 0.531 and 0.647 and 0.477 and 0.584
OD505nm (blood glucose, GOD assay) in OGTT ([8]; 0 min, ICR mice, oral 46a 100 mg kg^‒1 or dapagliflozin 5 mg kg^‒1): 0.188 and 0.144 and 0.165 and 0.159 and 0.17 and 0.15 and 0.177 and 0.146
OD505nm (blood glucose, GOD assay) in OGTT ([8]; 15 min after glucose 2 g kg^‒1, oral 46a 100 mg kg^‒1 or dapagliflozin 5 mg kg^‒1): 0.243 and 0.23 and 0.198 and 0.207 and 0.185 and 0.182 and 0.211 and 0.199
OD505nm (blood glucose, GOD assay) in OGTT ([8]; 30 min after glucose, same doses): 0.2 (2×) and 0.22 and 0.193 and 0.178 and 0.196 and 0.205 and 0.204
OD505nm (blood glucose, GOD assay) in OGTT ([8]; 60 min after glucose, same doses): 0.209 and 0.178 and 0.176 and 0.169 and 0.175 and 0.171 and 0.182 and 0.185
OD505nm (blood glucose, GOD assay) in OGTT ([8]; 120 min after glucose, same doses): 0.173 and 0.17 and 0.162 and 0.165 (2×) and 0.166 and 0.157 and 0.167
glucose in urine ([9]; 4h): 13936 mg/dL and 9326 mg/dL and 12440 mg/dL and 15728 mg/dL
glucose in urine ([9]; 6h): 15122 mg/dL and 8208 mg/dL and 11640 mg/dL and 11138 mg/dL
inhibition at 10 µM [4]: 100%
SGLT2 inhibitory rates [4]: 102.4%
inhibition at 10 µM [5]: 98.4%

Source: article PMC7558026, “Exploring and applying the substrate promiscuity of a C-glycosyltransferase in the chemo-enzymatic synthesis of bioactive C-glycosides” (Nature Communications, 2020)
